Measured values: patent publication US8153791B2, “Substituted pyrimidinyl oxime kinase inhibitors” (Janssen Pharmaceutica N.V., priority 2005, dated 2012)

Columns and labels:
[1] = molecular target: T1, EGFR (Homo sapiens, UniProt P00533); assay: EGFR Kinase Assay; type: biochemical; settings: for inhibition at 2 µM: test concentration of 2 μM;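 as to all read-outs here: recombinant GST-tagged EGFR expressed in Sf9 cells, phosphorylating biotinylated polyGluTyr with γ-33P ATP on Streptavidin Flashplates, 1 h at 30 °C, scintillation counting, inhibition relative to plate maximum and minimum signals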
T1 construct: The intracellular portion of EGFR started at nucleotide 2189 (corresponding to amino acid 667) and ended at the termination codon; made in house; host or cells: Sf9 insect cells (baculovirus)
T1 sequence (P00533 669-1210 limits assumed): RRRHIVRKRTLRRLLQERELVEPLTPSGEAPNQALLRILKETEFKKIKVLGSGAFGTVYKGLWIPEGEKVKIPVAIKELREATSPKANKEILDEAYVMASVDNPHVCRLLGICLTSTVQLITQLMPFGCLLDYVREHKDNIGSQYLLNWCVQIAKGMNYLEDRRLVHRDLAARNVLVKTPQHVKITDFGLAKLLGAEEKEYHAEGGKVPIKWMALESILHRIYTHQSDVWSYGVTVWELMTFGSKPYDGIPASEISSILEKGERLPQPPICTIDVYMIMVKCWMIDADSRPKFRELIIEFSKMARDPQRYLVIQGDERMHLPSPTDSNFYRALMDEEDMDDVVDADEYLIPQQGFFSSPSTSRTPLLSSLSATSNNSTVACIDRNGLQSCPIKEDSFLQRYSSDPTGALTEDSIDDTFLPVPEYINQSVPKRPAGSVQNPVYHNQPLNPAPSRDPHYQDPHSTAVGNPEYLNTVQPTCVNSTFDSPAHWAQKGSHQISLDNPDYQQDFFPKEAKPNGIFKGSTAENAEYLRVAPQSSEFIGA

[2] = molecular target: T2, HER-2 (Homo sapiens, UniProt P04626); assay: HER-2 Kinase Assay; type: biochemical; settings: for IC50: read-out: HER2 IC50;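 as to all read-outs here: HER2 kinase reaction read by scintillation counting, inhibition scaled between maximum and minimum signals set on each plate, IC50 from inhibition against log concentration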
T2 construct: purchased Proqinase (Freiburg, Germany)
T2 sequence (P04626 679-1255): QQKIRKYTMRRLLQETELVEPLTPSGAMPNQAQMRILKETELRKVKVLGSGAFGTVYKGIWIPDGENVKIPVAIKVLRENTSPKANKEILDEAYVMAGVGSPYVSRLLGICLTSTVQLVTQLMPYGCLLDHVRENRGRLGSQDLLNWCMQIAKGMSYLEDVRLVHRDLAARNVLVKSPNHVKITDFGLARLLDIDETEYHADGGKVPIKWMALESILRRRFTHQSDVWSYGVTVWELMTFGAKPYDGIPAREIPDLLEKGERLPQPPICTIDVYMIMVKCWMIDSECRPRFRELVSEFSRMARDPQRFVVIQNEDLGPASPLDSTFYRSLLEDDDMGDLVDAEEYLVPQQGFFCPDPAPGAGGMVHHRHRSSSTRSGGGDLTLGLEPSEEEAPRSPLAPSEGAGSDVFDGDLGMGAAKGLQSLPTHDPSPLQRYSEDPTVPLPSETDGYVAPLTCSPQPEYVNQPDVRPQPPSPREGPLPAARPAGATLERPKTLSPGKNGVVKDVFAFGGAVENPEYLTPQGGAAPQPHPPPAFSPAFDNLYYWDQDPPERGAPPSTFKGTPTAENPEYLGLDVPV

IC50 [1] [nM] | IC50 [2] [nM] | inhibition at 2 µM [1] [%] | inhibition at 1 µM ([2]; test concentration of 1 μM, read-out: HER2 % inhibition) [%] | Compound
200 | – | – | – | CCO/N=C/c1c(N)ncnc1Nc1ccc2c(cnn2Cc2cccc(OC)c2)c1 [Cpd 57]
10 | 4 | – | – | Nc1ncnc(Nc2ccc3c(cnn3Cc3cccc(F)c3)c2)c1/C=N\OCCCO [Cpd 69, (5Z)-4-amino-6-[1-(3-fluoro-benzyl)-1H-indazol-5-ylamino]-pyrimidine-5-carbaldehyde O-(3-hydroxy-propyl)-oxime]
100 | 300 | – | – | Nc1ncnc(Nc2ccc(Oc3ccccc3)cc2)c1/C=N/O [Cpd 111, (5E)-4-amino-6-(4-phenoxy-phenylamino)-pyrimidine-5-carbaldehyde oxime]
1200 | 1000 | – | – | CO/N=C/c1c(N)ncnc1Nc1ccc(OC)c(Cl)c1 [Cpd 63]
– | 14800 | – | – | CNc1ncnc(Nc2ccc(OCc3cccc(F)c3)c(Cl)c2)c1C=NOC [Cpd 39, 4-[3-Chloro-4-(3-fluoro-benzyloxy)-phenylamino]-6-methylamino-pyrimidine-5-carbaldehyde O-methyl-oxime]
200 | – | – | – | CCO/N=C/c1c(N)ncnc1Nc1ccc(OCc2cccc(F)c2)c(OC)c1 [Cpd 62]
400 | 3600 | – | – | CCNc1ncnc(Nc2ccc3c(cnn3Cc3cccc(F)c3)c2)c1/C=N/OCC [Cpd 41, (5E)-4-ethylamino-6-[1-(3-fluoro-benzyl)-1H-indazol-5-ylamino]-pyrimidine-5-carbaldehyde O-ethyl-oxime]
– | 7920 | 15 | – | CON=Cc1c(N)ncnc1Nc1ccc(OC)cc1 [Cpd 120, 4-amino-6-(4-methoxy-phenylamino)-pyrimidine-5-carbaldehyde O-methyl-oxime]
– | 100 | – | – | Nc1ncnc(Nc2ccc3c(cnn3Cc3cccc(F)c3)c2)c1/C=N/OCC(=O)N1CCOCC1 [Cpd 6, (5E)-4-amino-6-[1-(3-fluoro-benzyl)-1H-indazol-5-ylamino]-pyrimidine-5-carbaldehyde O-(2-morpholin-4-yl-2-oxo-ethyl)-oxime]
1200 | 14100 | – | – | CO/N=C/c1c(N)ncnc1Nc1ccc2c(c1)CCC2 [Cpd 20]
900 | 5500 | – | – | CO/N=C/c1c(N)ncnc1Nc1cccc(OCc2ccccc2)c1 [Cpd 28]
40 | 50 | – | – | CC(C)(C)O/N=C/c1c(N)ncnc1Nc1ccc2c(cnn2Cc2cccc(F)c2)c1 [Cpd 12, (5E)-4-amino-6-[1-(3-fluoro-benzyl)-1H-indazol-5-ylamino]-pyrimidine-5-carbaldehyde O-tert-butyl-oxime]
50 | – | – | – | CO/N=C/c1c(N)ncnc1Nc1cccc(Cl)c1 [Cpd 59, (5E)-4-amino-6-(3-chloro-phenylamino)-pyrimidine-5-carbaldehyde O-methyl-oxime]
20 | 90 | – | – | CCO/N=C/c1c(N)ncnc1Nc1ccc(OCc2ccccc2)c(Cl)c1 [Cpd 37, (5E)-4-amino-6-(4-benzyloxy-3-chloro-phenylamino)-pyrimidine-5-carbaldehyde O-ethyl-oxime]
– | > 10000 | – | – | CON=Cc1c(N)ncnc1NCc1ccc2c(c1)OCO2 [Cpd 121, 4-amino-6-[(benzo[1,3]dioxol-5-ylmethyl)-amino]-pyrimidine-5-carbaldehyde O-methyl-oxime]
– | 10600 | – | – | CCNc1ncnc(Nc2ccc3c(cnn3Cc3cccc(F)c3)c2)c1/C=N/OC [Cpd 40, (5E)-4-ethylamino-6-[1-(3-fluoro-benzyl)-1H-indazol-5-ylamino]-pyrimidine-5-carbaldehyde O-methyl-oxime]
– | > 100000 | 1 | – | CON=Cc1c(N)ncnc1Nc1ccc(N2CCOCC2)nc1 [Cpd 129, 4-amino-6-(6-morpholin-4-yl-pyridin-3-ylamino)-pyrimidine-5-carbaldehyde O-methyl-oxime]
100 | 3100 | – | – | CCO/N=C/c1c(N)ncnc1N[C@H](C)c1ccccc1 [Cpd 14]
30 | 40 | – | – | CCO/N=C/c1c(N)ncnc1Nc1ccc(OCc2cccc(F)c2)c(Cl)c1 [Cpd 18, (5E)-4-amino-6-[3-chloro-4-(3-fluoro-benzyloxy)-phenylamino)-pyrimidine-5-carbaldehyde O-ethyl-oxime]
40 | 200 | – | – | Nc1ncnc(Nc2ccc3c(cnn3Cc3cccc(F)c3)c2)c1/C=N/Oc1ccccc1 [Cpd 65, (5E)-4-amino-6-[1-(3-fluoro-benzyl)-1H-indazol-5-ylamino]-pyrimidine-5-carbaldehyde O-phenyl-oxime]
20 | 600 | – | – | CCO/N=C/c1c(N)ncnc1Nc1ccc2[nH]ccc2c1 [Cpd 17, (5E)-4-amino-6-(1H-indol-5-ylamino)-pyrimidine-5-carbaldehyde O-ethyl-oxime]
– | 1820 | 45 | – | CON=Cc1c(N)ncnc1Nc1ccc(Oc2ccccc2)nc1 [Cpd 128, 4-amino-6-(6-phenoxy-pyridin-3-ylamino)-pyrimidine-5-carbaldehyde O-methyl-oxime]

IC50 [1] [nM] | IC50 [2] [nM] | inhibition at 2 µM [1] [%] | inhibition at 1 µM ([2]; test concentration of 1 μM, read-out: HER2 % inhibition) [%] | Compound
50 | 100 | – | – | CO/N=C/c1c(N)ncnc1Nc1ccc(Oc2ccccc2)c(OC)c1 [Cpd 7, (5E)-4-amino-6-(3-methoxy-4-phenoxy-phenylamino)-pyrimidine-5-carbaldehyde O-methyl-oxime]
– | 700 | – | – | COc1cc(Nc2ncnc(N)c2/C=N/OCC(=O)N2CCOCC2)ccc1Oc1ccccc1 [Cpd 8, (5E)-4-amino-6-(3-methoxy-4-phenoxy-phenylamino)-pyrimidine-5-carbaldehyde O-(2-morpholin-4-yl-2-oxo-ethyl)-oxime]
– | > 100000 | 6 | – | CON=Cc1c(N)ncnc1NCc1ccc(OC)c(OC)c1 [Cpd 122, 4-amino-6-(3,4-dimethoxy-benzylamino)-pyrimidine-5-carbaldehyde O-methyl-oxime]
10 | 10 | – | – | CCO/N=C/c1c(N)ncnc1N[C@@H](C)c1ccccc1 [Cpd 16, (5E)-4-amino-6-[(1S)-1-phenyl-ethylamino]-pyrimidine-5-carbaldehyde O-ethyl-oxime]
30 | 10 | – | – | CCO/N=C/c1c(N)ncnc1Nc1ccc2c(cnn2Cc2ccccc2)c1 [Cpd 49, (5E)-4-amino-6-(1-benzyl-1H-indazol-5-ylamino)-pyrimidine-5-carbaldehyde O-ethyl-oxime]
100 | 200 | – | – | CCO/N=C/c1c(N)ncnc1Nc1ccc2c(cnn2Cc2ccc(F)cc2)c1 [Cpd 67, (5E)-4-amino-6-[1-(4-fluoro-benzyl)-1H-indazol-5-ylamino]-pyrimidine-5-carbaldehyde O-ethyl-oxime]
40 | 40 | – | – | CCO/N=C/c1c(N)ncnc1Nc1ccc2c(cnn2Cc2cccc(C#N)c2)c1 [Cpd 51, 3-{5-[6-amino-(5E)-5-(ethoxyimino-methyl)-pyrimidin-4-ylamino]-indazol-1-ylmethyl}-benzonitrile]
– | – | 42 | 25 | CON=Cc1c(N)ncnc1NC1CCCc2ccccc21 (centres unmarked) [Cpd 125, 4-amino-6-(1,2,3,4-tetrahydro-naphthalen-1-ylamino)-pyrimidine-5-carbaldehyde O-methyl-oxime]
8 | 10 | – | – | C=CCO/N=C/c1c(N)ncnc1Nc1ccc2c(cnn2Cc2cccc(F)c2)c1 [Cpd 11, (5E)-4-amino-6-[1-(3-fluoro-benzyl)-1H-indazol-5-ylamino]-pyrimidine-5-carbaldehyde O-allyl-oxime]
30 | – | – | – | CCO/N=C/c1c(N)ncnc1Nc1ccc2[nH]c(Cc3cccc(F)c3)nc2c1 [Cpd 58, (5E)-4-amino-6-[2-(3-fluoro-benzyl)-1H-benzoimidazol-5-ylamino]-pyrimidine-5-carbaldehyde O-ethyl-oxime]
500 | 3700 | – | – | CO/N=C/c1c(N)ncnc1Nc1ccc2nn(Cc3cccc(F)c3)cc2c1 [Cpd 5]
200 | 100 | – | – | CO/N=C/c1c(N)ncnc1Nc1ccc(Oc2cccnc2)c(C)c1 [Cpd 13, (5E)-4-amino-6-[3-methyl-4-(pyridin-3-yloxy)-phenylamino]-pyrimidine-5-carbaldehyde O-methyl-oxime]
1500 | 5300 | – | – | CO/N=C/c1c(N)ncnc1Nc1ccc(OC(F)F)cc1 [Cpd 21]
– | > 10000 | – | – | Nc1ncnc(NCc2ccc3c(c2)OCO3)c1C=NCc1ccc2c(c1)OCO2 [Cpd 119, N-benzo[1,3]dioxol-5-ylmethyl-5-[(benzo[1,3]dioxol-5-ylmethylimino)-methyl]-pyrimidine-4,6-diamine]
90 | 200 | – | – | CO/N=C/c1c(N)ncnc1Nc1ccc(Oc2ccccc2)cc1 [Cpd 24, (5E)-4-amino-6-(4-phenoxy-phenylamino)-pyrimidine-5-carbaldehyde O-methyl-oxime]
20 | 100 | – | – | CCO/N=C/c1c(N)ncnc1Nc1ccc2c(ccn2Cc2cccc(F)c2)c1 [Cpd 33, (5E)-4-amino-6-[1-(3-fluoro-benzyl)-1H-indol-5-ylamino]-pyrimidine-5-carbaldehyde O-ethyl-oxime]
30 | 300 | – | – | CO/N=C/c1c(N)ncnc1Nc1ccc(OCc2ccccc2)cc1 [Cpd 25, (5E)-4-amino-6-(4-benzyloxy-phenylamino)-pyrimidine-5-carbaldehyde O-methyl-oxime]
10 | 90 | – | – | CO/N=C/c1c(N)ncnc1Nc1ccc(OCc2ccccn2)c(Cl)c1 [Cpd 32, (5E)-4-amino-6-[3-chloro-4-(pyridin-2-ylmethoxy)-phenylamino]-pyrimidine-5-carbaldehyde O-methyl-oxime]
– | 4500 | – | – | CCO/N=C/c1c(N)ncnc1Nc1ccc2nn(Cc3ccccc3)cc2c1 [Cpd 52]
– | 2900 | – | – | CO/N=C/c1c(N)ncnc1Nc1ccc2oc(Cc3ccccc3)cc2c1 [Cpd 73]
200 | – | – | – | CO/N=C/c1c(N)ncnc1Nc1ccc(OCc2cccc(F)c2)c(OC)c1 [Cpd 61]
7800 | – | – | – | CCNc1ncnc(Nc2ccc(OCc3cccc(F)c3)c(Cl)c2)c1/C=N/OC [Cpd 42, (5E)-4-[3-chloro-4-(3-fluoro-benzyloxy)-phenylamino]-6-ethylamino-pyrimidine-5-carbaldehyde O-methyl-oxime]
